Measurements: patent US9932637B2, “Genetic polymorphisms associated with cardiovascular disorders and drug response, methods of detection and uses thereof” (CELERA CORPORATION, priority 2003, dated 2018)

Test system: patients with prior myocardial infarction (CARE study)
Test: CARE: association of SNPs with pravastatin treatment in cardiovascular events prevention (logistic regression, odds ratio pravastatin vs placebo by genotype; Table 8)
Type: in vivo, human
Settings: for Odds ratio pravastatin vs placebo: All Patients
From the text: In order to identify genetic markers associated with acute coronary events (e.g. MI, stroke, unstable angina, congestive heart failure, etc.) or response to statin treatment for the prevention of coronary events, samples from the Cholesterol and Recurrent Events (CARE) study (a randomized multicentral double-blinded trial on secondary prevention of acute coronary events with pravastatin) (Sacks et al., 1991, Am. J. Cardiol. 68: 1436-1446) were genotyped. A well-documented myocardial infarction (MI) was one of the enrollment criteria for entry into the CARE study. Patients were enrolled in the CARE trial from 80 participating study centers. […] Patients were randomized to receive either 40 mg of pravastatin once daily or a matching placebo. The primary endpoint of the trial was death from coronary heart disease and the median duration of follow-up was 5.0 years (range, 4.0 to 6.2 years). […] Secondary endpoints of other related cardiovascular or metabolic disease events, and changes in clinical variables were also recorded in pravastatin-treated and placebo groups. All individuals included in the study had signed a written informed consent form and the study protocol was approved by the respective Institutional Review Boards (IRBs).
For genotyping SNPs in CARE patient samples, DNA was extracted from blood samples using conventional DNA extraction methods such as the QIA-amp kit from Qiagen. Genotypes were obtained on an ABI PRISM® 7900HT Sequence Detection PCR system (Applied Biosystems, Foster City, Calif.) by kinetic allele-specific PCR, similar to the method described by Germer et al. (Germer S., Holland M. J., Higuchi R. 2000, Genome Res. 10: 258-266).
Statistical analysis for association of SNPs with pravastatin treatment in cardiovascular events prevention (Table 8) was carried out using an overall logistic regression model that included an intercept, a parameter for the effect of a genotype containing two rare alleles versus a genotype containing no rare alleles, a parameter for the effect of a genotype containing one rare allele versus a genotype containing no rare alleles, a parameter for the effect of use of pravastatin versus the use of placebo, and parameters for the interaction effects between SNP genotypes and pravastatin use. The test of the overall model is a chi-square test with two degrees of freedom for analyses containing all three genotypes, and one degree of freedom for analyses containing two genotypes.
Effect sizes were estimated through odds ratios (pravastatin group versus placebo) for carriers of each genotype (groups of 0, 1, and 2 minor allele carriers). The effect was considered to be significant if p-value for testing whether any of the interactions between SNP genotypes and pravastatin use were <0.05. […] Odds ratios less than one indicate that the specific SNP allele has a protective effect and odds ratios greater than one indicate that the specific SNP allele has an adverse effect.

[1] = TLR5 hCV15871020, All Patients, 2 Rare Alleles, Prava arm
[2] = TLR6 hCV1180648, All Patients, 0 Rare Alleles, Prava arm
[3] = TLR6 hCV1180648, All Patients, 1 Rare Allele, Prava arm
[4] = TLR6 hCV1180648, All Patients, 2 Rare Alleles, Prava arm
[5] = TNF hCV7514879, All Patients, 0 Rare Alleles, Prava arm
[6] = TNF hCV7514879, All Patients, 1 Rare Allele, Prava arm
[7] = TNF hCV7514879, All Patients, 2 Rare Alleles, Prava arm
[8] = VEGF hCV791476, All Patients, 0 Rare Alleles, Prava arm
[9] = VEGF hCV791476, All Patients, 1 Rare Allele, Prava arm
[10] = VEGF hCV791476, All Patients, 2 Rare Alleles, Prava arm

CC[C@H](C)C(=O)O[C@H]1C[C@H](O)C=C2C=C[C@H](C)[C@H](CC[C@@H](O)C[C@@H](O)CC(=O)O)[C@H]21 [pravastatin]
Fatal/Non-fatal Atherosclerotic CV Disease, n/total (%) [1]: (17.6%) | Hosp. for Cardiovascular Disease, n/total (%) [1]: (14.7%) | Total Cardiovascular Disease Events, n/total (%) [1]: (17.6%) | Total Coronary Heart Disease Events, n/total (%) [1]: (11.8%) | Odds ratio pravastatin vs placebo (TLR5 hCV15871020, Fatal/Non-fatal Atherosclerotic CV Disease, 0 rare alleles): 0.84 | Odds ratio pravastatin vs placebo (TLR5 hCV15871020, Fatal/Non-fatal Atherosclerotic CV Disease, 1 rare allele): 0.68 | Odds ratio pravastatin vs placebo (TLR5 hCV15871020, Fatal/Non-fatal Atherosclerotic CV Disease, 2 rare alleles): 0.14 | Odds ratio pravastatin vs placebo (TLR5 hCV15871020, Hosp. for Cardiovascular Disease, 0 rare alleles): 0.81 | Odds ratio pravastatin vs placebo (TLR5 hCV15871020, Hosp. for Cardiovascular Disease, 1 rare allele): 0.72 | Odds ratio pravastatin vs placebo (TLR5 hCV15871020, Hosp. for Cardiovascular Disease, 2 rare alleles): 0.09 | Odds ratio pravastatin vs placebo (TLR5 hCV15871020, Total Cardiovascular Disease Events, 0 rare alleles): 0.81 | Odds ratio pravastatin vs placebo (TLR5 hCV15871020, Total Cardiovascular Disease Events, 1 rare allele): 0.70 | Odds ratio pravastatin vs placebo (TLR5 hCV15871020, Total Cardiovascular Disease Events, 2 rare alleles): 0.10 | Odds ratio pravastatin vs placebo (TLR5 hCV15871020, Total Coronary Heart Disease Events, 0 rare alleles): 0.86 | Odds ratio pravastatin vs placebo (TLR5 hCV15871020, Total Coronary Heart Disease Events, 1 rare allele): 0.64 | Odds ratio pravastatin vs placebo (TLR5 hCV15871020, Total Coronary Heart Disease Events, 2 rare alleles): 0.10 | Cardiovascular Mortality, n/total (%) [2]: (3.5%) | Fatal Atherosclerotic Cardiovascular Disease, n/total (%) [2]: (3.5%) | Fatal Coronary Heart Disease, n/total (%) [2]: (3.3%) | Cardiovascular Mortality, n/total (%) [3]: (2.5%) | Fatal Atherosclerotic Cardiovascular Disease, n/total (%) [3]: (2.5%) | Fatal Coronary Heart Disease, n/total (%) [3]: (1.9%) | Cardiovascular Mortality, n/total (%) [4]: (6.9%) | Fatal Atherosclerotic Cardiovascular Disease, n/total (%) [4]: (6.5%) | Fatal Coronary Heart Disease, n/total (%) [4]: (6.2%) | Fatal/Non-fatal MI (def & prob), n/total (%) [5]: (10.5%) | Hosp. for Cardiovascular Disease, n/total (%) [5]: (40.9%) | Total Cardiovascular Disease Events, n/total (%) [5]: (42.4%) | Total Mortality, n/total (%) [5]: (6.0%) | Fatal/Non-fatal MI (def & prob), n/total (%) [6]: (7.7%) | Hosp. for Cardiovascular Disease, n/total (%) [6]: (38.9%) | Total Cardiovascular Disease Events, n/total (%) [6]: (39.4%) | Total Mortality, n/total (%) [6]: (4.7%) | Fatal/Non-fatal MI (def & prob), n/total (%) [7]: (7.1%) | Hosp. for Cardiovascular Disease, n/total (%) [7]: (35.7%) | Total Cardiovascular Disease Events, n/total (%) [7]: (35.7%) | Total Mortality, n/total (%) [7]: (3.6%) | Odds ratio pravastatin vs placebo (TNF hCV7514879, Fatal/Non-fatal MI (def & prob), 0 rare alleles): 0.80 | Odds ratio pravastatin vs placebo (TNF hCV7514879, Fatal/Non-fatal MI (def & prob), 1 rare allele): 0.44 | Odds ratio pravastatin vs placebo (TNF hCV7514879, Fatal/Non-fatal MI (def & prob), 2 rare alleles): 0.25 | Odds ratio pravastatin vs placebo (TNF hCV7514879, Hosp. for Cardiovascular Disease, 0 rare alleles): 0.79 | Odds ratio pravastatin vs placebo (TNF hCV7514879, Hosp. for Cardiovascular Disease, 1 rare allele): 0.76 | Odds ratio pravastatin vs placebo (TNF hCV7514879, Hosp. for Cardiovascular Disease, 2 rare alleles): 0.20 | Odds ratio pravastatin vs placebo (TNF hCV7514879, Total Cardiovascular Disease Events, 0 rare alleles): 0.79 | Odds ratio pravastatin vs placebo (TNF hCV7514879, Total Cardiovascular Disease Events, 1 rare allele): 0.73 | Odds ratio pravastatin vs placebo (TNF hCV7514879, Total Cardiovascular Disease Events, 2 rare alleles): 0.20 | Odds ratio pravastatin vs placebo (TNF hCV7514879, Total Mortality, 0 rare alleles): 1.11 | Odds ratio pravastatin vs placebo (TNF hCV7514879, Total Mortality, 1 rare allele): 0.57 | Odds ratio pravastatin vs placebo (TNF hCV7514879, Total Mortality, 2 rare alleles): 0.19 | Cardiovascular Mortality, n/total (%) [8]: (4.2%) | Fatal Atherosclerotic Cardiovascular Disease, n/total (%) [8]: (4.1%) | Cardiovascular Mortality, n/total (%) [9]: (2.4%) | Fatal Atherosclerotic Cardiovascular Disease, n/total (%) [9]: (2.4%) | Cardiovascular Mortality, n/total (%) [10]: (2.0%) | Fatal Atherosclerotic Cardiovascular Disease, n/total (%) [10]: (2.0%) | odds ratio, pravastatin group vs control group, adverse coronary event (hCV2741051, one rare allele): 0.43 | odds ratio, stroke in the pravastatin treated group (hCV2741051, one rare allele): 0.21 | odds ratio, pravastatin group vs control group, adverse coronary event (hCV2741051, two rare alleles): 0.26 | odds ratio, stroke in the pravastatin treated group (hCV2741051, two rare alleles): 0.23
